# Measured values: BindingDB's records for doi:10.1021/jm9600095 (Institut De Chimie Des Substances Naturelles Cnrs, 1997)
# Experiment: Reverse transcriptase activity was measured in the culture supernatant, concentration that reduces by 50% the HIV produced in the supernatant.
row,Structure (SMILES),EC50 [nM]
1,"CCOC(Cn1c(=O)c(C)cn(C2CC(N=[N+]=[N-])C(CO)O2)c1=O)OCC (stereo not given) [1-(4-Azido-5-hydroxymethyl-tetrahydro-furan-2-yl)-3-(2,2-diethoxy-ethyl)-5-methyl-1H-pyrimidine-2,4-dione]",1500
2,"Cc1cn(C2CC(N=[N+]=[N-])C(CO)O2)c(=O)n(CC2COC(C)(C)O2)c1=O (stereo not given) [1-(4-Azido-5-hydroxymethyl-tetrahydro-furan-2-yl)-3-(2,2-dimethyl-[1,3]dioxolan-4-ylmethyl)-5-methyl-1H-pyrimidine-2,4-dione]",13000
3,"Cc1cn(C2CC(N=[N+]=[N-])C(CO)O2)c(=O)n(CCO)c1=O (stereo not given) [1-(4-Azido-5-hydroxymethyl-tetrahydro-furan-2-yl)-3-(2-hydroxy-ethyl)-5-methyl-1H-pyrimidine-2,4-dione]",90
4,"COCCOCn1c(=O)c(C)cn(C2CC(N=[N+]=[N-])C(CO)O2)c1=O (stereo not given) [1-(4-Azido-5-hydroxymethyl-tetrahydro-furan-2-yl)-3-(2-methoxy-ethoxymethyl)-5-methyl-1H-pyrimidine-2,4-dione]",140000
5,"Cc1cn(C2CC(N=[N+]=[N-])C(CO)O2)c(=O)n(CCCO)c1=O (stereo not given) [1-(4-Azido-5-hydroxymethyl-tetrahydro-furan-2-yl)-3-(3-hydroxy-propyl)-5-methyl-1H-pyrimidine-2,4-dione]",120
6,"Cc1cn(C2CC(N=[N+]=[N-])C(CO)O2)c(=O)n(CC2CC(CO)=NO2)c1=O (stereo not given) [1-(4-Azido-5-hydroxymethyl-tetrahydro-furan-2-yl)-3-(3-hydroxymethyl-4,5-dihydro-isoxazol-5-ylmethyl)-5-methyl-1H-pyrimidine-2,4-dione]",1300
7,"Cc1cn(C2CC(N=[N+]=[N-])C(CO)O2)c(=O)n(CCCCCCO)c1=O (stereo not given) [1-(4-Azido-5-hydroxymethyl-tetrahydro-furan-2-yl)-3-(6-hydroxy-hexyl)-5-methyl-1H-pyrimidine-2,4-dione]",1200
8,"COc1nc(=O)n(CCn2c(=O)c(C)cn(C3CC(N=[N+]=[N-])C(CO)O3)c2=O)cc1C (stereo not given) [1-(4-Azido-5-hydroxymethyl-tetrahydro-furan-2-yl)-3-[2-(4-methoxy-5-methyl-2-oxo-2H-pyrimidin-1-yl)-ethyl]-5-methyl-1H-pyrimidine-2,4-dione]",> 29000
9,"Cc1cn(C2CC(n3c(=O)c(C)cn(C4CC(N=[N+]=[N-])C(CO)O4)c3=O)C(CO)O2)c(=O)[nH]c1=O (stereo not given) [1-(4-Azido-5-hydroxymethyl-tetrahydro-furan-2-yl)-3-[2-hydroxymethyl-5-(5-methyl-2,4-dioxo-3,4-dihydro-2H-pyrimidin-1-yl)-tetrahydro-furan-3-yl]-5-methyl-1H-pyrimidine-2,4-dione]",100
10,"Cc1cn(C2CC(N=[N+]=[N-])C(CO)O2)c(=O)n(CCn2c(=O)c(C)cn(C3CC(N=[N+]=[N-])C(CO)O3)c2=O)c1=O (stereo not given) [1-(4-azido-5-hydroxymethyltetrahydro-2-furanyl)-3-{2-[1-(4-azido-5-hydroxymethyltetrahydro-2-furanyl)-5-methyl-2,4-dioxo-1,2,3,4-tetrahydro-3-pyrimidinyl]ethyl}-5-methyl-1,2,3,4-tetrahydro-2,4-pyrimidinedione]",1400
11,"Cc1cn(C2CC(N=[N+]=[N-])C(CO)O2)c(=O)n(CCN=[N+]=[N-])c1=O (stereo not given) [3-(2-Azido-ethyl)-1-(4-azido-5-hydroxymethyl-tetrahydro-furan-2-yl)-5-methyl-1H-pyrimidine-2,4-dione]",1500
12,"C=CCn1c(=O)c(C)cn(C2CC(N=[N+]=[N-])C(CO)O2)c1=O (stereo not given) [3-Allyl-1-(4-azido-5-hydroxymethyl-tetrahydro-furan-2-yl)-5-methyl-1H-pyrimidine-2,4-dione]",65000
13,"Cc1cn(C2CC(N=[N+]=[N-])C(CO)O2)c(=O)n(N)c1=O (stereo not given) [3-Amino-1-(4-azido-5-hydroxymethyl-tetrahydro-furan-2-yl)-5-methyl-1H-pyrimidine-2,4-dione]",500
14,"CCOC(=O)Cn1c(=O)c(C)cn(C2CC(N=[N+]=[N-])C(CO)O2)c1=O (stereo not given) [[3-(4-Azido-5-hydroxymethyl-tetrahydro-furan-2-yl)-5-methyl-2,6-dioxo-3,6-dihydro-2H-pyrimidin-1-yl]-acetic acid ethyl ester]",14000
15,"CCOP(=O)(Cn1c(=O)c(C)cn(C2CC(N=[N+]=[N-])C(CO)O2)c1=O)OCC (stereo not given) [[3-(4-Azido-5-hydroxymethyl-tetrahydro-furan-2-yl)-5-methyl-2,6-dioxo-3,6-dihydro-2H-pyrimidin-1-ylmethyl]-phosphonic acid diethyl ester]",4700
